Legend:
[1] = test system: RSK2-CTD-mediated autophosphorylation of Ser386; assay: pS386 RSK inhibition in MDA-MB-231 cells; type: cell-based
RSK1/2 [2] = assay: Cellular RSK1/2 occupancy after inhibitor washout; type: cell-based; conditions: MDA-MB-231 cells, 1 μM inhibitor
[3] = Reaction with 10 mM glutathione; type: physicochemical
RSK1/2 [4] = assay: Cellular RSK1/2 occupancy assay using FMK-BODIPY; type: cell-based; conditions: MDA-MB-231 cells
[5] = type: physicochemical

Row | t1/2 of reaction with 10 mM glutathione [3] | potency relative to CN-NHiPr in the cellular occupancy assay (RSK1/2 [4]) | SMILES | potency relative to CN-NHiPr in the autophosphorylation assay [1] | time to reappearance of inhibitor-free RSK1/2 after washout (RSK1/2 [2]) | reaction with BME, stability or reversibility of the adduct [5]
1 | 16 h | less potent than CN-NHiPr | Cc1ccc(-c2c(C(=O)CF)n(CCCO)c3ncnc(N)c23)cc1 [FMK] | less potent than CN-NHiPr | at least 48 h | –
2 | – | – | N#C/C=C/c1ccccc1 [Compound 2, cinnamonitrile] | – | – | stable thioether adducts

Reference: PMC3657615 (Nature chemical biology, 2012)
